Source: US9006238B2, “Pyrazolo pyridine derivatives as NADPH oxidase inhibitors” (Genkyotex SA, priority 2008, dated 2015)

Assays:
NOX [1] = assay: Nitroblue tetrazolium (NBT) test of intracellular and extracellular superoxide in cell cultures; format: cell-based, human; conditions: DPI final concentration 10 μM, 2.5 h
Procedure: (§1) The activity of the compounds according to the invention may be tested for their activity in the inhibition or reduction of formation of reactive oxygen species (ROS) from oxygen in cells. The activity of the compounds is tested in the following cell cultures by different techniques such as nitroblue tetrazolium, Amplex Red, Chemiluminescence (Luminol) and 2′,7′-dichlorodihydrofluorescein diacetate (H2DCF-DA) according to the protocols detailed below.
Human microglia cell line (HMC3, human microglia clone 3) (Janabi et al., 1995, Neurosci. Lett. 195:105) were cultured in MEM (Eagle's minimum essential medium) containing 10% FBS with 50 U/ml penicillin G sodium 50 μg/ml streptomycin sulfate, and incubated at 37° C. for 24 hours. IFN-γ (human IFN-γ, Roche. 11 040 596 001) was added to the culture medium for a final concentration of 10 ng/ml 24 h, before detection of O2^− formation. […]
Intracellular and extracellular superoxide was measured by a colorimetric technique using a quantitative nitroblue tetrazolium (NBT) test. SOD-inhibitable conversion of NBT to formazan, a fine blue precipitate, in the presence of superoxide anion was measured using Fluostar Optima spectrometer (BMG labtech). […] The absorption was measured at 630 nm. For calculation, the absorbance at 630 nm was normalized for each individual well. […] NOX activities were expressed as % of the activity in control cells. […]

NOX [2] = assay: Chemiluminescence (luminol) measurement of ROS in cell cultures; format: cell-based, human; conditions: 60 minutes at 37° C.
Procedure: as §1
(§2) Extracellular hydrogen peroxide was measured using Amplex UltraRed (Molecular Probes). Cells were trypsinized (1× Trypsin-EDTA), collected by centrifugation, and resuspended in HBSS supplemented with 1% glucose. Cells were seeded into black 96-well plates at a density of 50,000 cells in 200 μl testing buffer (HBSS 1% glucose containing 0.005 U/mL horseradish peroxidase (Roche) and 50 μM Amplex Red in the presence or absence of compounds according to the invention. As a control, DPI was included at a final concentration of 10 μM The plates were placed in the fluorescent Optima Fluorescent plate reader and kept at 37° C. during 20 min. Fluorescence was measured for […] with excitation and emission wavelengths of 544 nm and 590 nm respectively. NOX activities were expressed as % of the activity in control cells. Residual activity of DPI-treated cells was usually <10%.
ROS was measured using the chemiluminescent probe luminol. […]

NOX [3] = biological target: T1, NOX (Homo sapiens, UniProt P04839); assay: Amplex Red measurement of extracellular hydrogen peroxide (NOX activity) using DMSO-differentiated HL60 cells; format: cell-based; conditions: for IC50 / Inhibition (%) of NOX activity: DMSO-differentiated HL60 cells; for Inhibition (%) of NOX activity: test concentration not given
T1 construct: HL60 differentiation to the neutrophil phenotype was triggered by adding Me2SO; endogenous in cells; host or cells: HL-60 cells differentiated with DMSO (1.25% v/v, 6 days) to the neutrophil phenotype
T1 sequence (P04839 1-570): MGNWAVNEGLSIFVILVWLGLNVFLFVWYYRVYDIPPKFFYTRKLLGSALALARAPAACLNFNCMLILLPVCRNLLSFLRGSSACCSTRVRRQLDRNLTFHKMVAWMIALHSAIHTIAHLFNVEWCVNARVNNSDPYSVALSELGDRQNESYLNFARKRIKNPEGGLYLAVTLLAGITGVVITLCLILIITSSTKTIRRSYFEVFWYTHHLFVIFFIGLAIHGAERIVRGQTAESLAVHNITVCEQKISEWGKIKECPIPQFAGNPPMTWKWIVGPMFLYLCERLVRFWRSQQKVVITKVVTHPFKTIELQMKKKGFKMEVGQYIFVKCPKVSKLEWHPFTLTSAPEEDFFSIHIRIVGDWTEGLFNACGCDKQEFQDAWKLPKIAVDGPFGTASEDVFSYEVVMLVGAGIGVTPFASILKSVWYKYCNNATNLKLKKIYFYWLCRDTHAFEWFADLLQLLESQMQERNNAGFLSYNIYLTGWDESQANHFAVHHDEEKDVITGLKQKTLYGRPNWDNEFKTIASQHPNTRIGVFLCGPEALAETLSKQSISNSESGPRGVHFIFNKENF
T1 sequence (P13498 1-195 partner): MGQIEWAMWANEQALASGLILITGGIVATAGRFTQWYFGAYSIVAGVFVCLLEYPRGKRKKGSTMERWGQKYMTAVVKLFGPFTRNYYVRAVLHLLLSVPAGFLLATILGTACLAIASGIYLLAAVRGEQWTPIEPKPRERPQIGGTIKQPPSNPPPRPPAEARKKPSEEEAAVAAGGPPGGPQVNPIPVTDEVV
Procedure: as §1
Human acute myeloid leukemia cell line HL-60 was cultured in RPMI 1640 (Invitrogen) supplemented with 10% heat-inactivated calf serum, 2 mM glutamine, 100 U/mL penicillin (Sigma), and 100 μg streptomycin (Sigma) at 37° C. under a humidified atmosphere of 5% CO2. HL60 differentiation to the neutrophil phenotype was triggered by adding Me2SO (final concentration 1.25% v/v for 6 days) to the culture medium.
as §2
The Table 2 below summarizes the percentage of inhibition of NOX activity as measured by Amplex Red using DMSO-differentiated HL60 cells as described above:
The Table 3 below summarizes the IC50 of NOX activity as measured by Amplex Red using DMSO-differentiated HL60 cells as described above: […]

NOX [4] = assay: H2DCF-DA (DCF fluorescence) measurement of ROS in HUVEC stimulated with TGF-β; format: cell-based, human; conditions: TGF-β stimulation
Procedure: as §1, with “below. […]” for “below.”
HUVEC were plated on coverslips and made quiescent overnight in 0.5% BSA before stimulation with TGF-β. […] DCF fluorescence was visualized at an excitation wavelength of 488 nm and emission at 515 to 540 nm. […] For calculation, the absorbance at […] was normalized to absorbance at […] for each individual well. […] NOX activities were expressed as % of the activity in control cells. […]

| Compound | Residual activity of DPI-treated cells (NOX activity as % of the activity in control cells) (NOX [3]; DPI final concentration 10 μM) [%] | IC50 (NOX [3]) [µM] | Inhibition (%) of NOX activity (NOX [3]) [%] | Residual activity of DPI-treated cells (NOX activity as % of the activity in control cells) (NOX [1]) [%] | Residual activity of DPI-treated cells (NOX activity as % of the activity in control cells) (NOX [2]) [%] | Residual activity of DPI-treated cells (NOX activity as % of the activity in control cells) (NOX [4]) [%] |
| --- | --- | --- | --- | --- | --- | --- |
| c1ccc([I+]c2ccccc2)cc1 [DPI, Diphenyl-iodonium] | < 10 | – | – | < 10 | < 10 | < 10 |
| COCCn1[nH]c2cc(=O)n(CCOC)c(CCCOc3ccccc3)c2c1=O [Compound 94, 2,5-bis(2-methoxyethyl)-4-(3-phenoxypropyl)-1H-pyrazolo[4,3-c]pyridine-3,6 (2H,5H)-dione] | – | < 5 | 90 | – | – | – |
| O=c1c2c(COc3ccc(F)cc3)n(Cc3ccc(Cl)cc3)c(=O)cc2[nH]n1CCN1CCOCC1 [Compound 51, 5-(4-chlorobenzyl)-4-[(4-fluorophenoxy)methyl]-2-(2-morpholin-4-ylethyl)-1H-pyrazolo[4,3-c]pyridine-3,6 (2H,5H)-dione] | – | < 5 | 76 | – | – | – |
| Cc1c2c(=O)n(Cc3ccccc3)[nH]c2cc(=O)n1Cc1ccccn1 [Compound 1, 2-Benzyl-4-Methyl-5-(Pyridin-2-Ylmethyl)-1H-Pyrazolo[4,3-c]Pyridine-3,6(2H,5H)-Dione] | – | < 5 | 67 | – | – | – |

The next lines start with results.

| Residual activity of DPI-treated cells (NOX activity as % of the activity in control cells) (NOX [3]; DPI final concentration 10 μM) [%] | IC50 (NOX [3]) [µM] | Inhibition (%) of NOX activity (NOX [3]) [%] | Compound | Residual activity of DPI-treated cells (NOX activity as % of the activity in control cells) (NOX [1]) [%] | Residual activity of DPI-treated cells (NOX activity as % of the activity in control cells) (NOX [2]) [%] | Residual activity of DPI-treated cells (NOX activity as % of the activity in control cells) (NOX [4]) [%] |
| --- | --- | --- | --- | --- | --- | --- |
| – | < 5 | 95 | COCCn1c(CCCOc2ccccc2)c2c(=O)n(CCN3CCOCC3)[nH]c2cc1=O [Compound 74, 5-(2-methoxyethyl)-2-(2-morpholin-4-ylethyl)-4-(3-phenoxypropyl)-1H-pyrazolo[4,3-c]pyridine-3,6 (2H,5H)-dione] | – | – | – |
| – | < 5 | 90 | COCCn1[nH]c2cc(=O)n(C)c(-c3ccc(Cl)cc3)c2c1=O [Compound 77, 4-(4-chlorophenyl)-2-(2-methoxyethyl)-5-methyl-1H-pyrazolo[4,3-c]pyridine-3,6 (2H,5H)-dione] | – | – | – |
| – | < 5 | 78 | CC(=O)Nc1cccc(Cn2c(C)c3c(=O)n(CCc4ccccc4)[nH]c3cc2=O)c1 [Compound 28, N-(3-{[4-methyl-3,6-dioxo-2-(2-phenylethyl)-1,2,3,6-tetrahydro-5H-pyrazolo[4,3-c]pyridin-5-yl]methyl}phenyl) acetamide] | – | – | – |
| – | < 5 | 75 | COCCn1[nH]c2cc(=O)n(CC(=O)N3CCOCC3)c(C)c2c1=O [Compound 20] | – | – | – |
